US6509361B1, “1,5-Diaryl substituted pyrazoles as p38 kinase inhibitors” (Pharmacia Corporation, priority 2001, dated 2003)

Assays:
human p38 kinase alpha = target: T1, human p38 kinase alpha (Homo sapiens, UniProt Q16539); test: p38 Kinase Assay (in vitro; PHAS-I/32P-ATP format or EGFRP/33P-ATP format); format: biochemical; conditions: activated human p38 kinase alpha, 50 μM unlabeled ATP; table does not say which of the two assay formats
T1 construct: The coding region of the human p38a cDNA was obtained by PCR-amplification from RNA isolated from the human monocyte cell line THP.1; GST (N); made in house; host or cells: E. coli DH10B
T1 sequence (Q16539 whole entry): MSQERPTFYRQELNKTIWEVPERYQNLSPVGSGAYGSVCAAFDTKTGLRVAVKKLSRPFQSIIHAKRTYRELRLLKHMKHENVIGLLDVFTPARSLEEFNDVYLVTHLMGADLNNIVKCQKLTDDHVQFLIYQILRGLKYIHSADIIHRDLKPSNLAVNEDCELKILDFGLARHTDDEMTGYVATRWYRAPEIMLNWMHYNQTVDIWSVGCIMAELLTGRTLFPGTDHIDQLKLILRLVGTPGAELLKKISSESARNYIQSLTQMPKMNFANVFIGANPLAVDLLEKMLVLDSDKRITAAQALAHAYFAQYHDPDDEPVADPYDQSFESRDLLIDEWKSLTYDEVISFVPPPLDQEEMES
Procedure: The coding region of the human p38a cDNA was obtained by PCR-amplification from RNA isolated from the human monocyte cell line THP.1. First strand cDNA was synthesized from total RNA as follows: 2 μg of RNA was annealed to 100 ng of random hexamer primers in a 10 μl reaction by heating to 70° C. for 10 minutes followed by 2 minutes on ice. cDNA was then synthesized by adding 1 μl of RNAsin (Promega, Madison Wis.), 2 μl of 50 mM dNTP's, 4 μl of 5×buffer, 2 μl of 100 mM DTT and 1 μl (200 U) of Superscript II™ […] reverse transcriptase. Random primer, dNTP's and Superscript™ reagents were all purchased from Life-Technologies, Gaithersburg, Mass. The reaction was incubated at 42° C. for 1 hour. Amplification of p38 cDNA was performed by aliquoting 5 μl of the reverse transcriptase reaction into a 100 μl PCR reaction containing the following: 80 μl dH2O, 2 μl 50 mM dNTP's, 1 μl each of forward and reverse primers (50 pmol/μl), 10 μl of 10× buffer and 1 μl Expand™ polymerase (Boehringer Mannheim). The PCR primers incorporated Bam HI sites onto the 5′ and 3′ end of the amplified fragment, and were purchased from Genosys. The forward and reverse primers were 5′-[…]-3′ and 5′[…]-3′, respectively. The PCR amplification was carried out in a DNA Thermal Cycler (Perkin Elmer) by repeating 30 cycles of 94° C. for 1 minute, 60° C. for 1 minute and 68° C. for 2 minutes. After amplification, excess primers and unincorporated dNTP's were removed from the amplified fragment with a Wizard™ PCR prep (Promega) and digested with Bam HI (New England Biolabs). The Bam HI digested fragment was ligated into BamHI digested pGEX 2T plasmid DNA (PharmaciaBiotech) using T-4 DNA ligase (New England Biolabs) as described by T. Maniatis, Molecular Cloning: A Laboratory Manual, 2nd ed. (1989). The ligation reaction was transformed into chemically competent E. coli DH10B cells purchased from Life-Technologies following the manufacturer's instructions. Plasmid DNA was isolated from the resulting bacterial colonies using a Promega Wizard™ miniprep kit. Plasmids containing the appropriate Bam HI fragment were sequenced in a DNA Thermal Cycler (Perkin Elmer) with Prism™ (Applied Biosystems Inc.). cDNA clones were identified that coded for both human p38a isoforms (Lee et al. Nature 372, 739). One of the clones which contained the cDNA for p38a-2 (CSBP-2) inserted in the cloning site of pGEX 2T, 3′ of the GST coding region was designated pMON 35802. The sequence obtained for this clone is an exact match of the cDNA clone reported by Lee et al. This expression plasmid allows for the production of a GST-p38a fusion protein.
Expression of Human p38a:
GST/p38a fusion protein was expressed from the plasmid pMON 35802 in E. coli, stain DH10B (Life Technologies, Gibco-BRL). Overnight cultures were grown in Luria Broth (LB) containing […] ampicillin. The next day, 500 ml of fresh LB was inoculated with 10 ml of overnight culture, and grown in a 2 liter flask at 37° C. with constant shaking until the culture reached an absorbance of 0.8 at 600 nm. Expression of the fusion protein was induced by addition of isopropyl b-D-thiogalactosidse (IPTG) to a final concentration of 0.05 mM. The cultures were shaken for three hours at room temperature, and the cells were harvested by centrifugation. The cell pellets were stored frozen until protein purification.
Purification of p38 Kinase-α:
All chemicals were from Sigma Chemical Co. unless noted. Twenty grams of E. coli cell pellet collected from five 1 L shake flask fermentations was resuspended in a volume of PBS (140 mM NaCl, 2.7 mM KCl, 10 mM Na2HPO4, 1.8 mM KH2PO4, pH 7.3) up to 200 ml. The cell suspension was adjusted to 5 mM DTT with 2 M DTT and then split equally into five 50 ml Falcon conical tubes. The cells were sonnicated (Ultrasonics model W375) with a 1 cm probe for 3×1 minutes (pulsed) on ice. […]

[1] = tested on: TNF-a (LPS-stimulated human peripheral blood mononuclear cells); test: TNF Cell Assay: LPS stimulation of human PBM cells, TNF-a by ELISA; format: cell-based; conditions: PBMC, LPS 20 ng/ml, overnight 37° C., compound 10-0.41 μM
Procedure: Method of Isolation of Human Peripheral Blood Mononuclear Cells:
Human whole blood was collected in Vacutainer tubes containing EDTA as an anticoagulant. A blood sample (7 ml) was carefully layered over 5 ml PMN Cell Isolation Medium (Robbins Scientific) in a 15 ml round bottom centrifuge tube. The sample was centrifuged at 450-500×g for 30-35 minutes in a swing out rotor at room temperature. After centrifugation, the top band of cells were removed and washed 3 times with PBS w/o calcium or magnesium. The cells were centrifuged at 400×g for 10 minutes at room temperature. The cells were resuspended in Macrophage Serum Free Medium (Gibco BRL) at a concentration of 2 million cells/ml.
LPS Stimulation of Human PBMS:
PBM cells (0.1 ml, 2 million/ml) were co-incubated with 0.1 ml compound (10-0.41 μM, final concentration) for 1 hour in flat bottom 96 well microtiter plates. Compounds were dissolved in DMSO initially and diluted in TCM for a final concentration of 0.1% DMSO. LPS (Calbiochem, 20 ng/ml, final concentration) was then added at a volume of 0.010 ml. Cultures were incubated overnight at 37° C. Supernatants were then removed and tested by ELISA for TNF-a and IL1-b. Viability was analyzed using MTS. After 0.1 ml supernatant was collected, 0.020 ml MTS was added to remaining 0.1 ml cells. The cells were incubated at 37° C. for 2-4 hours, then the O.D. was measured at […].

[2] = tested on: TNF-α released by U937 cells (human histiocytic lymphoma cell line); test: U937 Cell Assay: LPS stimulation of TNF production by U937 cells, ELISA; format: cell-based; conditions: U-937, differentiated U937 cells, LPS 100 ng/ml, 4 hour incubation
Procedure: Maintenance and Differentiation of the U937 Human Histiocytic Lymphoma Cell Line:
U937 cells (ATCC) were propagated in RPMI 1640 containing 10% fetal bovine serum, 100 IU/ml penicillin, 100 μg/ml streptomycin, and 2 mM glutamine (Gibco). Fifty million cells in 100 ml media were induced to terminal monocytic differentiation by 24 hour incubation with 20 ng/ml phorbol 12-myristate 13-acetate (Sigma). The cells were washed by centrifugation (200×g for 5 min) and resuspended in 100 ml fresh medium. After 24-48 hours, the cells were harvested, centrifuged, and resuspended in culture medium at 2 million cells/ml.
LPS Stimulation of TNF Production by U937 Cells:
U937 cells (0.1 ml, 2 million/ml) were incubated with 0.1 ml compound (0.004-50 μM, final concentration) for 1 hour in 96 well microtiter plates. Compounds were prepared as 10 mM stock solutions in DMSO and diluted in culture medium to yield a final DMSO concentration of 0.1% in the cell assay. LPS (E. coli, 100 ng/ml final concentration) was then added at a volume of 0.02 ml. After 4 hour incubation at 37° C., the amount of TNF-α released in the culture medium was quantitated by ELISA. Inhibitory potency is expressed as IC50 (μM).

| SMILES | IC50 (human p38 kinase alpha) [µM] | IC50 [1] [µM] | IC50 [2] [µM] | melting point [°C] |
| --- | --- | --- | --- | --- |
| Cc1cccc(-n2ncc(C)c2-c2ccncc2)c1 [Example 3] | 4.9 | 0.6 | 0.66 | 141.77 |
| CCNc1cc(-c2cc(C)nn2-c2ccc(C)cc2)ccn1 [Example 8] | 0.07 | 0.2 | 0.72 | 97.15 |
| Cc1cc(-c2ccnc(C#N)c2)n(-c2ccc(F)cc2)n1 [Example 32, 2-Cyano-4-[1-(4-fluorophenyl)-3-methyl-1H-pyrazol-5-yl]pyridine] | 2.97 | > 10 | > 10 | 94 to 95 |
| Cc1cc(-c2ccnc(NCc3ccccc3)c2)n(-c2ccc(Cl)cc2)n1 [Example 12] | 0.003 | 0.3 | 0.2 | 105.53 |
| O=C(c1cnn(-c2ccc(F)cc2)c1-c1ccncc1)N1CCNCC1 [Example 17] | 65.1 | > 10 | ≥ 10 | – |
| Cc1cccc(-n2nc(C)cc2-c2cc[nH]c(=O)c2)c1 [Example 23, 4-[1-(3-Methylphenyl)-3-methyl-1H-pyrazol-5-yl]-2-pyridone] | 9.55 | 2.4 | ≥ 10 | 182 to 183 |
| Fc1ccc(-n2nccc2-c2ccnc(Cl)c2)cc1 [Example 45, 2-Chloro-4-[1-(4-fluorophenyl)-1H-pyrazol-5-yl]pyridine] | 1.06 | 8.1 | ≥ 10 | – |
| Cc1cccc(-n2nc(C)cc2-c2ccnc(C#N)c2)c1 [Example 31, 2-Cyano-4-[1-(3-methylphenyl)-3 methyl-1H-pyrazol-5-yl]pyridine] | 0.5 | 1.7 | 1.65 | 128 to 130 |
| Cc1cccc(-n2nc(C)cc2-c2ccnc(NCCc3ccccc3)c2)c1 [Example 24, 2-(Phenylethylamino)-4-[1-(3-methylphenyl)-3-methyl-1H-pyrazol-5-yl]pyridine] | < 0.01 | 0.02 | 0.05 | 86 to 87 |
| CCNc1cc(-c2ccncc2)n(-c2ccc(F)cc2)n1 [Example 15] | > 100 | > 10 | ≥ 10 | – |
| Cc1cc(-c2ccnc(NCCO)c2)n(-c2ccc(Cl)cc2)n1 [Example 11] | 0.07 | 0.1 | 0.48 | 137.57 |
| Cc1cccc(-n2nc(C)cc2-c2ccnc(N(C)Cc3ccccc3)c2)c1 [Example 27, 2-(N-Methylbenzylamino)-4-[1-(3-methylphenyl)-3-methyl-1H-pyrazol-5-yl]pyridine] | > 100 | > 10 | ≥ 10 | – |
| COc1cc(-c2cc(C)nn2-c2cccc(C)c2)ccn1 [Example 22, 2-Methoxy-4-[1-(3-methylphenyl)-3-methyl-1H-pyrazol-5-yl]pyridine] | 0.079 | 1.9 | 1.31 | – |
| NC(=O)c1cnn(-c2ccc(F)cc2)c1-c1ccncc1 [Example 16, 1-(4-Fluorophenyl)-5-(4-pyridinyl)-1H-pyrazole-4-carboxamide] | 7.72 | > 10 | > 10 | 215 to 216 |
| Cc1cnn(-c2ccc(F)cc2)c1-c1ccncc1 [Example 1] | 16.8 | 0.1 | ≥ 10 | 135.86 |
| Cc1cccc(-n2nc(C)cc2-c2ccnc(N(C)C)c2)c1 [Example 35, 2-(Dimethylamino)-4-[1-(3-methylphenyl)-3-methyl-1H-pyrazol-5-yl]pyridine] | 1.15 | 3.4 | ≥ 10 | 84 to 85 |
| CNc1cc(-c2cc(C)nn2-c2ccc(C)cc2)ccn1 [Example 9] | 0.29 | 0.1 | 17.9 | 126.34 |
| Fc1ccc(-n2nccc2-c2ccnc(NCc3ccccc3)c2)cc1 [Example 29, 2-(Benzylamino)-4-[1-(4-fluorophenyl)-1H-pyrazol-5-yl]pyridine] | 0.129 | 1.3 | 0.24 | – |
| Cc1cc(-c2ccnc(NCCc3ccccc3)c2)n(-c2ccc(Cl)cc2)n1 [Example 13] | 0.05 | 0.1 | 0.86 | – |
| Cc1cccc(-n2nc(C)cc2-c2ccnc(NCCO)c2)c1 [Example 26, 2-(2-Hydroxyethylamino)-4-[1-(3-methylphenyl)-3-methyl-1H-pyrazol-5-yl]pyridine] | 0.156 | 0.1 | 0.21 | – |
